Key:
[1] = Ex vivo biodistribution, organ-to-muscle ratio; assay type: in vivo, mice; details: 1 nmol/mouse, 24 hours after administration
Procedure: The ex vivo biodistribution of the representative compounds 1, 2 and 3 and of the reference compound HF-1 (at 1 nmol/mouse) was evaluated in HT-29 excised tumors and tissues at the end of the in vivo OI sessions 24 hours post intravenous administration. At the end of the in vivo experiment, animals were euthanized by overdose of gaseous anesthesia followed by cervical dislocation. Tumor tissue, muscle, and other organs of interest were removed for ex vivo fluorescent signal measurements. The fluorescence signal intensity was measured by the IVIS Spectrum system. Regions of interest (ROIs) were drawn around each organ and tumor using the Living Image Software (PerkinElmer) and evaluating signal intensity in the tissues (expressed as Average Radiant Efficiency). The ratio between the fluorescence signal in the organs and tumor was then calculated to assess the contrast to hind limb muscle (representing the background).
Moreover, FIG. 6 (b) and Table VIII show the accumulation and distribution of the fluorescent probes in the dissected organs, reporting the ex vivo values of organs-to-muscle ratio from samples collected at 24 hours after the administration of representative compounds 1, 2 and 3 and of the reference compound HF-1 (1 nmol/mouse).

[2] = Optical characterization (excitation/emission maxima, molar extinction coefficient); assay type: physicochemical
Procedure: A dual-beam UV-VIS spectrophotometer (Lambda 40, Perkin Elmer) was used to determine the absorbance (Abs) of the compounds of the invention. Emission/excitation (Em/Ex) spectra were carried out on a spectrofluorometer (FluoroLog-3 1IHR-320, Horiba Jobin Yvon) equipped with an F-3018 integrating sphere accessory. The measurements were performed using an excitation wavelength at maximum absorbance of different dyes, and the sample was excited with a 450W Xenon Light Source. Detection was performed by photomultiplier tubes (PMT-NIR) cooled detector or by TBX-04 detector. Dye solutions were carefully prepared to have an absorbance lower than 0.1 (optical densities) to minimize re-absorption phenomena.
The compounds of the invention were characterized in terms of their optical properties in vitro in aqueous medium (i.e., water/PBS pH 7.4) and in a clinical chemistry control serum (Seronorm, Sero S A), mimicking the chemical composition and optical properties of human serum. All solutions were freshly prepared. In particular, the compounds of the invention are characterized by absorption maxima comprised in the range from about 750 nm to 780 nm.
The excitation and emission maxima in PBS and Seronorm and the molar extinction coefficient (E) in water of representative compounds of formula (I) are shown in Table I in comparison with the known CA-IX targeting fluorescent probe named Hypoxyfluor-1 (HF-1, for instance disclosed in Bioconjugate Chem 2018, 29, 3320-3331). […] Moreover, the extinction coefficients were higher than […] for all compounds.

[3] = tested on: HT-29 colorectal tumor; assay: In vivo optical imaging of HT-29 tumor bearing mice (tumor-to-background ratio); details: 1 nmol/mouse intravenous, 24 hours after administration; tumor vs hind limb muscle
Procedure: HT-29 cells were collected and washed once with serum-free medium. Five million HT-29 cells were suspended in 0.1 mL serum-free medium and injected subcutaneously in the right flank of 5 weeks old mice. Tumor development was followed by caliper measurement twice a week, from 7 days after inoculation. Tumor volume was calculated according to the formula: (L*W2)/2, where L and W are the maximum length and width of the tumor.
Optical Imaging experiments on HT-29 tumor bearing animals were performed after administration of HF-1, as reference compound, and compounds 1, 2 and 3, all at a dose of 1 nmol/mouse in an administration volume of 0.1 mL (corresponding to about 5 mL/kg, considering a 20 g-mouse) at an injection rate of about 1 mL/min, by the IVIS Spectrum system when the tumor reached at least 200 mm^3 volume.
For each group, in vivo OI experiments were performed at 0.5, 1, 2, 3, 4, 6 and 24 hours after intravenous administration of the fluorescent compounds. During imaging experiments animals were maintained under gaseous anesthesia. Regions of interest (ROIs) were drawn on the tumor and on a reference background healthy region (hind limb muscle) of the mouse for each fluorescence image at every time point to evaluate signal intensity in the tissues (expressed as Average Radiant Efficiency). The ratio between the fluorescence signal in the tumor and in the background healthy tissue (tumor-to-background ratio, TBR) was then calculated to assess the contrast.
All the compounds of the invention and HF-1 were tested at a dose of 1 nmol/mouse.

[4] = tested on: HT-29 cells; assay: Time-dependent cell uptake / internalization in HT-29 cells by flow cytometry; assay type: cell-based, human; details: 1 μM; for Slope of cell-associated fluorescence increase / total cell-associated fluorescence over time: 37° C.; for Slope of cell-associated fluorescence increase: 1-6 hours; for total cell-associated fluorescence over time: 1 to 6 hours; for % internalization (mean ± std. dev.): after 2 hours at 37° C.
Procedure: The HT-29 cells were used as in vitro model to assess the cell uptake of the CA-IX targeting compounds of the invention, more specifically whether cellular internalization of compounds occurred after targeting to cell-surface-expressed CA-IX. Cellular uptake was evaluated by flow cytometry. […] Treatment with unconjugated dyes were used to estimate non-specific CA-IX-independent cellular uptake. Cell incubation on ice was used to discriminate the cell-associated fluorescence deriving from internalized and cell-surface associated compounds (37° C.), from the one deriving from solely cell surface-bound compounds (on ice). Treatment of HT-29 cells, grown in 24-well plates, was performed by rinsing cells in DPBS and then by incubation with treatment solutions, for the indicated times and temperatures, in the dark. At the end of treatment, cells were rinsed 3 times with cold DPBS, and detached from the plate with StemPro® Accutase® Cell Dissociation Reagent, collected in 1.5 mL tubes after dilution in DPBS and centrifuged (5 minutes, 350 RCF, 4° C.). The supernatant was then discarded, and the cell pellet was resuspended in 300 μL of cold FACS buffer, or in a suitable volume in order to obtain no more than 1,000 recorded events per μL during FACS analysis. Samples were analyzed with the flow cytometer Accuri™ C6 (BD Biosciences) using the 640 nm excitation laser and the emission 780/60 nm filter. At least 15000 valid events were collected for each sample. At the end of analysis, each sample was plotted in histograms, being X the fluorescence intensity (FL4-A) in log scale and Y the counts. Usually, a gaussian distribution of the cell population was observed. The data retrieved were the mean fluorescence of each population, considered the fluorescence intensity value of the corresponding sample. Independent replicates were performed for each experimental condition. Normalized cell-associated fluorescence was calculated with the following formula: […]
To evaluate the time dependent uptake, the experiments were conducted from 1 to 6 hours of cell treatment with a compound concentration of 1 μM, both on ice (internalization blocked) and at 37° C. (internalization-permissive temperature) in order to differentiate cell-associated fluorescence deriving from internalized compounds from that due to cell surface-associated one. The cell surface-associated fluorescence remained roughly constant over time while the binding of the corresponding unconjugated dyes was undetectable. […] The internalization potential was calculated as percentage of internalized compounds after 2 hours of cell treatment (arbitrarily chosen) at 37° C.

| SMILES | Organ-to-muscle ratio, intestine [1] | Organ-to-muscle ratio, kidney [1] | Organ-to-muscle ratio, liver [1] | Organ-to-muscle ratio, skin [1] | Organ-to-muscle ratio, spleen [1] | Organ-to-muscle ratio, stomach [1] | Max Em ([2]; PBS pH 7.4) | Max Ex ([2]; PBS pH 7.4) | Max Em ([2]; Seronorm) | Max Ex ([2]; Seronorm) | in vivo TBR (mean ± SD) [3] | Slope of cell-associated fluorescence increase [4] | total cell-associated fluorescence over time [4] | % internalization (mean ± std. dev.) [4] |
| --- | --- | --- | --- | --- | --- | --- | --- | --- | --- | --- | --- | --- | --- | --- |
| CC1(C)C(/C=C/C=C/C=C/C=C2/N(CCCCS(=O)(=O)O)c3ccc(S(=O)(=O)O)cc3C2(C)C)=[N+](CCCCS(=O)(=O)[O-])c2ccc(C(=O)NCCCCCCCC(=O)Nc3nnc(S(N)(=O)=O)s3)cc21 [Compound 2] | 1.2 ± 0.1 | 4.0 ± 1.7 | 2.7 ± 0.4 | 1.6 ± 0.4 | 1.0 ± 0.1 | 7.1 ± 1.2 | 784 nm | 754 nm | 788 nm | 768 nm | 5.1 ± 1.9 | 1.9 | increased over time | 40.8 ± 9.9% |
| CC1(C)C(/C=C/C=C/C=C/C=C2/N(CCCCS(=O)(=O)O)c3ccc(C(=O)NC[C@H](O)[C@@H](O)[C@H](O)[C@H](O)CO)cc3C2(C)C)=[N+](CCCCS(=O)(=O)[O-])c2ccc(C(=O)NCCCCCCCC(=O)Nc3nnc(S(N)(=O)=O)s3)cc21 [Compound 1] | 1.5 ± 0.3 | 8.3 ± 1.9 | 3.3 ± 1.1 | 1.1 ± 0.2 | 0.5 ± 0.1 | 11.3 ± 3.2 | 783 nm | 752 nm | 791 nm | 768 nm | 5.9 ± 1.2 | 1.0 | increased over time | 22.8 ± 8.2% |
| CC1(C)C(/C=C/C2=C(Oc3ccc(S(=O)(=O)O)cc3)C(=C/C=C3/N(CCCCS(=O)(=O)O)c4ccc(S(=O)(=O)O)cc4C3(C)C)/CCC2)=[N+](CCCCS(=O)(=O)[O-])c2ccc(C(=O)NCCCCCCCC(=O)Nc3nnc(S(N)(=O)=O)s3)cc21 [Compound 3] | 1.5 ± 0.2 | 4.7 ± 1.6 | 3.1 ± 0.6 | 1.0 ± 0.1 | 1.0 ± 0.1 | 3.5 ± 0.3 | 802 nm | 776 nm | 810 nm | 792 nm | 2.2 ± 0.6 | 2.7 | increased over time | 49.2 ± 3.9% |

Source: patent US20250352675A1, “CA-IX TARGETING FLUORESCENT PROBES” (BRACCO IMAGING S.P.A., priority 2022, published 2025)
